Results taken from ChEMBL document CHEMBL1681651, “A broad spectrum anticancer nucleoside with selective toxicity against human colon cells in vitro” (2011).

Experiments:
Type in all cases: functional
[1] = test system: HCC 2998; experiment: Growth inhibition of human HCC2998 cells assessed as cell growth at 1 mM after 48 hrs by SRB assay; conditions: HCC 2998, 48 h, read-out: Activity
[2] = test system: M14; experiment: Growth inhibition of human M14 cells assessed as cell growth at 1 mM after 48 hrs by SRB assay; conditions: M14, 48 h, read-out: Activity
[3] = test system: OVCAR-8; experiment: Growth inhibition of human OVCAR8 cells assessed as cell growth at 10 uM after 48 hrs by SRB assay; conditions: OVCAR-8, 48 h, read-out: Activity
[4] = test system: HOP-62; experiment: Growth inhibition of human HOP62 cells after 48 hrs by […] growth inhibition assay; conditions: HOP-62, 48 h
[5] = test system: IGROV-1; experiment: Growth inhibition of human IGROV1 cells assessed as cell growth at 100 uM after 48 hrs by SRB assay; conditions: IGROV-1, 48 h, read-out: Activity
[6] = test system: SF-268; experiment: Growth inhibition of human SF268 cells assessed as cell growth at 1 mM after 48 hrs by SRB assay; conditions: SF-268, 48 h, read-out: Activity
[7] = test system: SNB-75; experiment: Growth inhibition of human SNB75 cells assessed as cell growth at 10 uM after 48 hrs by SRB assay; conditions: SNB-75, 48 h, read-out: Activity
[8] = test system: MDA-MB-435; experiment: Growth inhibition of human MDA-MB-435 cells assessed as cell growth at 0.1 uM after 48 hrs by SRB assay; conditions: MDA-MB-435, 48 h, read-out: Activity
[9] = test system: CAKI-1; experiment: Growth inhibition of human Caki1 cells assessed as cell growth at 1 uM after 48 hrs by SRB assay; conditions: CAKI-1, 48 h, read-out: Activity
[10] = test system: NCI-H460; experiment: Growth inhibition of human NCI-H460 cells assessed as cell growth at 100 uM after 48 hrs by SRB assay; conditions: NCI-H460, 48 h, read-out: Activity
[11] = test system: EKVX; experiment: Growth inhibition of human EKVX cells assessed as cell growth at 0.1 uM after 48 hrs by SRB assay; conditions: read-out: Activity
[12] = test system: SK-MEL-28; experiment: Growth inhibition of human SK-MEL-28 cells assessed as cell growth at 10 uM after 48 hrs by SRB assay; conditions: SK-MEL-28, 48 h, read-out: Activity
[13] = test system: UACC-62; experiment: Growth inhibition of human UACC62 cells assessed as cell growth at 100 uM after 48 hrs by SRB assay; conditions: UACC-62, 48 h, read-out: Activity
[14] = test system: T47D; experiment: Growth inhibition of human T47D cells after 48 hrs by […] growth inhibition assay
[15] = test system: MDA-MB-435; experiment: Growth inhibition of human MDA-MB-435 cells after 48 hrs by SRB assay; conditions: MDA-MB-435, 48 h
[16] = test system: NCI-H522; experiment: Growth inhibition of human NCI-H522 cells assessed as cell growth at 1 uM after 48 hrs by SRB assay; conditions: NCI-H522, 48 h, read-out: Activity
[17] = test system: DU-145; experiment: Growth inhibition of human DU145 cells assessed as cell growth at 1 mM after 48 hrs by SRB assay; conditions: DU-145, 48 h, read-out: Activity
[18] = test system: RXF 393; experiment: Growth inhibition of human RXF393 cells after 48 hrs by […] growth inhibition assay; conditions: RXF 393, 48 h
[19] = test system: OVCAR-4; experiment: Growth inhibition of human OVCAR4 cells assessed as cell growth at 100 uM after 48 hrs by SRB assay; conditions: OVCAR-4, 48 h, read-out: Activity
[20] = test system: MDA-MB-231; experiment: Growth inhibition of human MDA-MB-231 cells assessed as cell growth at 100 uM after 48 hrs by SRB assay; conditions: MDA-MB-231, 48 h, read-out: Activity
[21] = test system: SF-295; experiment: Growth inhibition of human SF295 cells assessed as cell growth at 10 uM after 48 hrs by SRB assay; conditions: SF-295, 48 h, read-out: Activity
[22] = test system: UACC-62; experiment: Growth inhibition of human UACC62 cells assessed as cell growth at 1 mM after 48 hrs by SRB assay; conditions: UACC-62, 48 h, read-out: Activity
[23] = Growth inhibition of human Hs 578T cells assessed as cell growth at 10 uM after 48 hrs by SRB assay; conditions: read-out: Activity
[24] = test system: MOLT-4; experiment: Growth inhibition of human MOLT4 cells assessed as cell growth at 10 uM after 48 hrs by SRB assay; conditions: MOLT-4, 48 h, read-out: Activity
[25] = test system: OVCAR-8; experiment: Growth inhibition of human OVCAR8 cells assessed as cell growth at 1 uM after 48 hrs by SRB assay; conditions: OVCAR-8, 48 h, read-out: Activity
[26] = test system: COLO 205; experiment: Growth inhibition of human COLO205 cells assessed as cell growth at 1 uM after 48 hrs by SRB assay; conditions: COLO 205, 48 h, read-out: Activity
[27] = test system: 786-0; experiment: Growth inhibition of human 786-0 cells assessed as cell growth at 1 mM after 48 hrs by SRB assay; conditions: 786-0, 48 h, read-out: Activity
[28] = test system: HCT-15; experiment: Growth inhibition of human HCT15 cells assessed as cell growth at 1 uM after 48 hrs by SRB assay; conditions: HCT-15, 48 h, read-out: Activity
[29] = test system: SK-OV-3; experiment: Growth inhibition of human SKOV3 cells assessed as cell growth at 10 uM after 48 hrs by SRB assay; conditions: SK-OV-3, 48 h, read-out: Activity
[30] = test system: NCI-H322M; experiment: Growth inhibition of human NCI-H322M cells after 48 hrs by […] growth inhibition assay
[31] = test system: HOP-92; experiment: Growth inhibition of human HOP92 cells after 48 hrs by […] growth inhibition assay; conditions: HOP-92, 48 h
[32] = test system: TK-10; experiment: Growth inhibition of human TK10 cells assessed as cell growth at 100 uM after 48 hrs by SRB assay; conditions: TK-10, 48 h, read-out: Activity
[33] = read-out: LC50 (the source's name)
[34] = read-out: pLC50 (the source's name) (converted)

For `CCOC(=O)C[C@H]1[C@@H](O[Si](C)(C)C(C)(C)C)[C@H](n2cnc3c(NC(=O)Nc4ccccc4)ncnc32)O[C@@H]1CNC(=O)NC`, the growth at 1000 µM [1] was 62%, the growth at 1000 µM [2] was -56% and the growth at 10 µM [3] was 98%. It also gave a GI50 ([4]; read-out: GI50) of 8.96 µM, a CC50 [4, 33] of 73.1 µM and a TGI ([4]; read-out: TGI) of 26.4 µM. It also gave a GI50 ([4]; read-out: pGI50 (converted)) of 8.91 µM, a CC50 [4, 34] of 72.4 µM and a TGI ([4]; read-out: pTGI (converted)) of 26.3 µM. The growth at 100 µM [5] was 20%, the growth at 1000 µM [6] was -53% and the growth at 10 µM [7] was 85%. It also gave a growth at 0.1 µM [8] of 95%, a growth at 1 µM [9] of 95% and a growth at 100 µM [10] of 32%. It also gave a growth at 0.1 µM [11] of 92%, a growth at 10 µM [12] of 100% and a growth at 100 µM [13] of 82%. The GI50 ([14]; read-out: GI50) was 2.55 µM, the CC50 [14, 33] was > 100 µM and the TGI ([14]; read-out: TGI) was > 100 µM. For the same compound, the GI50 ([14]; read-out: pGI50 (converted)) was 2.57 µM, the CC50 [14, 34] was > 100 µM and the TGI ([14]; read-out: pTGI (converted)) was > 100 µM. The GI50 ([15]; read-out: GI50) was 6.21 µM, the LC50 ([15]; read-out: LC50) was > 100 µM and the TGI ([15]; read-out: TGI) was > 100 µM. The GI50 ([15]; read-out: pGI50 (converted)) was 6.17 µM, the LC50 ([15]; read-out: pLC50 (converted)) was > 100 µM and the TGI ([15]; read-out: pTGI (converted)) was > 100 µM. For the same compound, the growth at 1 µM [16] was 85%, the growth at 1000 µM [17] was -59% and the GI50 ([18]; read-out: GI50) was 2.01 µM. It also gave a CC50 [18, 33] of 19.5 µM, a TGI ([18]; read-out: TGI) of 4.63 µM and a GI50 ([18]; read-out: pGI50 (converted)) of 2 µM. For the same compound, the CC50 [18, 34] was 19.5 µM, the TGI ([18]; read-out: pTGI (converted)) was 4.68 µM and the growth at 100 µM [19] was 53%. For the same compound, the growth at 100 µM [20] was 20%, the growth at 10 µM [21] was 88% and the growth at 1000 µM [22] was 60%. The growth at 10 µM [23] was 90%, the growth at 10 µM [24] was 76% and the growth at 1 µM [25] was 100%. The growth at 1 µM [26] was 97%, the growth at 1000 µM [27] was -97% and the growth at 1 µM [28] was 96%. The growth at 10 µM [29] was 90%, the GI50 ([30]; read-out: GI50) was > 100 µM and the CC50 [30, 33] was > 100 µM. The TGI ([30]; read-out: TGI) was > 100 µM, the GI50 ([30]; read-out: pGI50 (converted)) was > 100 µM and the CC50 [30, 34] was > 100 µM. For the same compound, the TGI ([30]; read-out: pTGI) was > 100 µM, the GI50 ([31]; read-out: GI50) was < 0.01 µM and the CC50 [31, 33] was 41.2 µM. For the same compound, the GI50 ([31]; read-out: pGI50 (converted)) was < 0.01 µM, the CC50 [31, 34] was 40.7 µM and the growth at 100 µM [32] was 59%.

In the case of `CNC(=O)NC[C@H]1O[C@@H](n2cnc3c(NC(=O)Nc4ccccc4)ncnc32)[C@H](O[Si](C)(C)C(C)(C)C)[C@@H]1CC(=O)N(C)OC`, the growth at 1000 µM [1] is reported as 33%, the growth at 1000 µM [2] is reported as 18% and the growth at 10 µM [3] is reported as 103%. The GI50 ([4]; read-out: GI50) was 24.9 µM, the CC50 [4, 33] was > 100 µM and the TGI ([4]; read-out: TGI) was > 100 µM. The GI50 ([4]; read-out: pGI50 (converted)) was 25.1 µM, the CC50 [4, 34] was > 100 µM and the TGI ([4]; read-out: pTGI (converted)) was > 100 µM. The growth at 100 µM [5] was 26%, the growth at 1000 µM [6] was 20% and the growth at 10 µM [7] was 84%. For the same compound, the growth at 0.1 µM [8] was 100%, the growth at 1 µM [9] was 72% and the growth at 100 µM [10] was 44%. The growth at 0.1 µM [11] was 94%, the growth at 10 µM [12] was 101% and the growth at 100 µM [13] was 69%. For the same compound, the GI50 ([14]; read-out: GI50) was 13.9 µM, the CC50 [14, 33] was > 100 µM and the TGI ([14]; read-out: TGI) was > 100 µM. The GI50 ([14]; read-out: pGI50 (converted)) was 13.8 µM, the CC50 [14, 34] was > 100 µM and the TGI ([14]; read-out: pTGI (converted)) was > 100 µM. The GI50 ([15]; read-out: GI50) was 10.9 µM, the LC50 ([15]; read-out: LC50) was > 100 µM and the TGI ([15]; read-out: TGI) was > 100 µM. The GI50 ([15]; read-out: pGI50 (converted)) was 11 µM, the LC50 ([15]; read-out: pLC50 (converted)) was > 100 µM and the TGI ([15]; read-out: pTGI (converted)) was > 100 µM. It also gave a growth at 1 µM [16] of 87%, a growth at 1000 µM [17] of 16% and a GI50 ([18]; read-out: GI50) of 9.74 µM. The CC50 [18, 33] was > 100 µM, the TGI ([18]; read-out: TGI) was 38 µM and the GI50 ([18]; read-out: pGI50 (converted)) was 9.77 µM. For the same compound, the CC50 [18, 34] was > 100 µM, the TGI ([18]; read-out: pTGI (converted)) was 38 µM and the growth at 100 µM [19] was 60%. The growth at 100 µM [20] was 55%, the growth at 10 µM [21] was 98% and the growth at 1000 µM [22] was 39%. It also gave a growth at 10 µM [23] of 82%, a growth at 10 µM [24] of 78% and a growth at 1 µM [25] of 106%. For the same compound, the growth at 1 µM [26] was 93%, the growth at 1000 µM [27] was 8% and the growth at 1 µM [28] was 94%. For the same compound, the growth at 10 µM [29] was 95%, the GI50 ([30]; read-out: GI50) was > 100 µM and the CC50 [30, 33] was > 100 µM. For the same compound, the TGI ([30]; read-out: TGI) was > 100 µM, the GI50 ([30]; read-out: pGI50 (converted)) was > 100 µM and the CC50 [30, 34] was > 100 µM. For the same compound, the TGI ([30]; read-out: pTGI) was > 100 µM, the GI50 ([31]; read-out: GI50) was 2.71 µM and the CC50 [31, 33] was > 100 µM. The TGI ([31]; read-out: TGI) was 24.3 µM, the GI50 ([31]; read-out: pGI50 (converted)) was 2.69 µM and the CC50 [31, 34] was > 100 µM. For the same compound, the TGI ([31]; read-out: pTGI (converted)) was 24 µM and the growth at 100 µM [32] was 65%.
